Experimental findings from ChEMBL document CHEMBL1201862, “PubChem BioAssay data set” (2004) are described below.

Active and inactive are the calls of the source.

In assay [1] the target is T1, Cytochrome P450 3A4 (Homo sapiens, UniProt P08684). Particulars: Potency.
Assay [2] concerns the target T1, Cytochrome P450 3A4. Particulars: read-out: Potency.
For assay [3], the system named is HEK293. The assay can be described thus: NOD1 signaling inhibitors, primary screen, cell-based, luminescence, uHTS (AID 1578). The format is functional. Particulars: Homo sapiens.
Assay [4] relates to HEK293. Kind of assay: cells. It counts as functional, cell-based. Particulars: Homo sapiens.
For assay [5], the target named is Serine/threonine-protein phosphatase PP1-alpha catalytic subunit (Homo sapiens, UniProt P62136). Kind of assay: PP1 phosphatase inhibitors, dose response, biochemical, fluorescence (AID 2403).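 Further: phosphatase turnover of OMFP into fluorescent 3-O-methylfluorescein.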
Serine/threonine-protein phosphatase PP1-alpha catalytic subunit, sequence (P62136 whole entry): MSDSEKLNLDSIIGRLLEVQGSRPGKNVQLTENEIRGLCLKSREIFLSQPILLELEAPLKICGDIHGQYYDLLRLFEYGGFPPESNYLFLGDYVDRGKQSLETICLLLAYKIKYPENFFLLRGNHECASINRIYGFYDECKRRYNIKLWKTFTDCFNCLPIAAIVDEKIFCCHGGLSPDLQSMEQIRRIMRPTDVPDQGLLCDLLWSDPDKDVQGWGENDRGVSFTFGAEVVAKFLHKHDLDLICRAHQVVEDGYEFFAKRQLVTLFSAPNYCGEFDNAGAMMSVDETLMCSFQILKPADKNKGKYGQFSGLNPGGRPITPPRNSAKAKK
The test system of assay [6] is HEK293. The assay can be described thus: cells. It counts as functional, cell-based. Particulars: Homo sapiens. The source holds these as a separate data set.
The test system of assay [7] is HEK293. Kind of assay: NOD2 signaling inhibitors in MDP-stimulated cells, cell-based, uHTS, luminescence (AID 2001). The format is functional. Particulars: Homo sapiens.
For assay [8], the target named is Serine/threonine-protein phosphatase (Homo sapiens, UniProt Q9BPW0). Kind of assay: Counterscreen for inhibitors of PP1: fluorescence-based biochemical high throughput dose response assay to identify inhibitors of Protein Phosphatase 5 (PP5). [Related pubchem assays: 2034 (Summary (PP5 inhibitors)), 1987 (PP5 inhibitors in singlate), 2235 (PP1 inhibitors in singlate)].
Serine/threonine-protein phosphatase (Homo sapiens, UniProt Q9BPW0), sequence (Q9BPW0 whole entry): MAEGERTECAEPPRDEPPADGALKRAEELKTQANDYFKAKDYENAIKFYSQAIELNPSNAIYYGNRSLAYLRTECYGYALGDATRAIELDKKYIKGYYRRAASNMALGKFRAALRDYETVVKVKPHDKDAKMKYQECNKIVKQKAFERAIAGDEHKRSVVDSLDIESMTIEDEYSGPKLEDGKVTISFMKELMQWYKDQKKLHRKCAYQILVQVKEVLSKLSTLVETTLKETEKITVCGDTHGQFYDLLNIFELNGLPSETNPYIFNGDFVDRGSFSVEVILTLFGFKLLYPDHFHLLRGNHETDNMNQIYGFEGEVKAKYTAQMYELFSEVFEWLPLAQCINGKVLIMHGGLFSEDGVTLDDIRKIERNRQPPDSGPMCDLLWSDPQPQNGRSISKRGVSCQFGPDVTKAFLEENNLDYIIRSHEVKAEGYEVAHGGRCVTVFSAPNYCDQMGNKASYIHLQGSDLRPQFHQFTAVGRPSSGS

Assay [9] addresses Photoreceptor-specific nuclear receptor (Homo sapiens, UniProt Q9Y5X4). The format is functional.
The target in assay [10] is Peroxisome proliferator-activated receptor gamma/Nuclear receptor corepressor 2 (Homo sapiens, UniProt P37231+Q9Y618). The format is functional.
Assay [11] addresses Mothers against decapentaplegic homolog 3 (Homo sapiens, UniProt P84022). Kind of assay: Smad3 binding inhibitors, lysate ELISA, dose response, cell lysate, secondary confirmation, chemiluminescent ELISA, HEK293 lysate (AID 1058). The format is functional.
For the next assay, the system named is Vero. Kind of assay: Vero E6 cell cytotoxicity, SAR follow-up, cytotoxicity control for West Nile virus antiviral project, synthesized analogs (AID 2244). The format is functional. Particulars: Chlorocebus sabaeus.
Assay [12] has as its target Voltage-gated N-type calcium channel alpha-1B subunit/Amyloid beta A4 precursor protein-binding family A member 1 (Homo sapiens, UniProt Q00975+Q02410). Kind of assay: disruptors of Mint-PDZ/N-type channel peptide interaction – biochemical, HTRF, set 2, SAR follow-up (AID 434980). It counts as functional.
Assay [13] has as its target Melanin-concentrating hormone receptor 1 (Homo sapiens, UniProt Q99705). The assay can be described thus: Late-stage fluorescence-based counterscreen for antagonists of the G-protein coupled receptor 7 (GPR7): cell-based dose response assay to identify antagonists of the melanin-concentrating hormone receptor 1 (MCHR1). [Related pubchem assays (depositor defined):AID1861, AID1880, AID1952, AID2148, AID2251, AID2257, AID485339]. It counts as functional.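 Further: stimulated with 30 nM MCH peptide agonist.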

Assay [14] can be described thus: NIH-3T3 fibroblast cytotoxicity, dose response, cytotoxicity control, cell-based, fluorescence, Alamar Blue, secondary assay (AID 2327).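 Further: NIH-3T3 mouse fibroblasts cultured with fluconazole at 8 µg/mL.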 It counts as functional.
The nature of assay [15]: luciferase reporter signal reduction – luminescence, H4-C neuroglioblastoma cells, dose response (AID 2458).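 Further: H4 neuroglioblastoma cells stably carrying a luciferase reporter gene fusion.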 It counts as functional, cell-based.
The subject of assay [16] is Streptococcus sp. 'group A'. Kind of assay: growth inhibition of control SK(-) GAS strain, dose response, counter-screen for streptokinase expression inhibitor project, luminescence, kanamycin, BacTiterGlo, confirmation (AID 1900). It counts as functional, organism-based.
Another assay is described as follows: cells. It counts as functional, cell-based.
The nature of assay [17]: Luminescence Cell-Based Dose Response HTS to Identify Inhibitors of 5'UTR Stem-Loop Driven Prion Protein mRNA Translation in H4 Neuroglioblastoma Cells. [Related pubchem assays: 1827 (Project Summary), 1813 (Primary HTS)]. The format is functional.
The nature of assay [18]: inhibitors of SNCA 5'UTR-driven reporter translation, confirmation, H4 neuroglioma cells, luminescence (AID 1988). It counts as functional, cell-based.
Assay [19] can be described thus: C. albicans growth with fluconazole, confirmation, fluorescence, retest (AID 2467). It counts as functional, cell-based.
For assay [20], the target named is Nucleotide-binding oligomerization domain-containing protein 2 (Homo sapiens, UniProt Q9HC29). Kind of assay: NOD2 signaling inhibitors, cell-based, luminescence, uHTS, HEK293 (AID 1566). The format is functional.
Assay [21] can be described thus: inhibitors of intracellular T. cruzi replication, confirmation, NIH3T3 host cells, beta-gal luminescence (AID 2044).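 Further: intracellular parasites grown in NIH/3T3 mouse fibroblasts as host cells; luminescent beta-galactosidase reporter signal from transgenic T. cruzi replicating inside host cells; inhibitors lower the luminescence signal.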 The format is functional, cell-based.
Assay [22] relates to HEK293. The assay can be described thus: cells. It counts as functional, cell-based. Particulars: Homo sapiens. The source holds these as a separate data set.
Assay [23] addresses T2, Serine/threonine-protein phosphatase (Candida dubliniensis (strain CD36 / CBS 7987 / NCPF 3949 / NRRLY-17841) (Yeast), UniProt B9W6M3).
T2 sequence (B9W6M3 whole entry): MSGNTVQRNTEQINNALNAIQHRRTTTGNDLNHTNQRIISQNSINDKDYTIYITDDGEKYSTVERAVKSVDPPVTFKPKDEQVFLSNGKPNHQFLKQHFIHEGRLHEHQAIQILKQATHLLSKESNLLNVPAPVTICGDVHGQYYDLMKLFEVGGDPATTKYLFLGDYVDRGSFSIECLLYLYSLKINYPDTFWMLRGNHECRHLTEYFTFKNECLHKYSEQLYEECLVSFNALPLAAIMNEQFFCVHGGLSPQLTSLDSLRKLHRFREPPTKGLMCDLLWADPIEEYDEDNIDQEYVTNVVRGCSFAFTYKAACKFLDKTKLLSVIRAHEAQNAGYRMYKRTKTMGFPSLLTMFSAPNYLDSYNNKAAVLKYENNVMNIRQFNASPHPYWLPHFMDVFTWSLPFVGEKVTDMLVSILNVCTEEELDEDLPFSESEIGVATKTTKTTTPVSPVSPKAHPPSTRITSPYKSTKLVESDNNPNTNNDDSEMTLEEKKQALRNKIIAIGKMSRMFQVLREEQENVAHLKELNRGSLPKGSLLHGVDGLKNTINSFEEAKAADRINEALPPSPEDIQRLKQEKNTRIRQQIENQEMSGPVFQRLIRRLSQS
The assay can be described thus: calcineurin pathway inhibitors in yeast reporter, dose response, S. cerevisiae, CDRE-lacZ, luminescence, secondary (AID 2388).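 Further: yeast reporter cells carrying a calcineurin-responsive lacZ construct stimulated with calcium chloride; luminescent beta-galactosidase reporter signal in whole cells rather than isolated phosphatase activity; potency for inhibition where a drop in reporter signal means calcineurin blockade.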 It counts as functional, cell-based.

A short description of assay [24]: cytotoxicity toward NIH3T3 fibroblasts, dose response, counter-screen, cell-based, ATP luminescence, mouse fibroblasts (AID 2010).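 Further: cells exposed to compound for about 90 hours before reading.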 The format is functional.
The next assay deals with Streptococcus. Kind of assay: Group A Streptococcus viability loss, dose response, counter-screen for streptokinase expression inhibitor project, luminescence, BacTiterGlo (AID 1915).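 Further: potency for reduction of bacterial viability or growth.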 It counts as functional, organism-based.
A short description of assay [25]: inhibitors of SNCA 5'UTR-driven translation, confirmation, luminescence, H4 neuroglioblastoma cells, dose confirmation (AID 2454).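 Further: H4 neuroglioblastoma cells carrying an alpha-synuclein 5'UTR luciferase reporter; potency for inhibition of the luciferase signal.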 It counts as functional, cell-based.
In another assay the test system is INS1. Kind of assay: beta cell apoptosis inhibitors, cytokine rescue, dose response, luminescence, retest (AID 449756).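 Further: cell death triggered by IL-1 beta plus TNF-alpha plus IFN-gamma mixture; protective hits raise ATP signal compared with cytokine alone wells.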 It counts as functional, cell-based. Particulars: Rattus norvegicus.
The target of assay [26] is ATP-dependent molecular chaperone HSP82 (Candida albicans (strain WO-1) (Yeast), UniProt C4YTQ8). The assay can be described thus: loss of DOC-induced GRE-beta-galactosidase reporter signal, dose response, Hsp90 inhibitor project, S. cerevisiae, luminescence (AID 2400).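 Further: beta-galactosidase luminescence from glucocorticoid response element reporter as proxy for Hsp90 function; inhibitor potency where signal loss means Hsp90 inhibition.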 It counts as functional, cell-based.
ATP-dependent molecular chaperone HSP82, sequence (C4YTQ8 whole entry): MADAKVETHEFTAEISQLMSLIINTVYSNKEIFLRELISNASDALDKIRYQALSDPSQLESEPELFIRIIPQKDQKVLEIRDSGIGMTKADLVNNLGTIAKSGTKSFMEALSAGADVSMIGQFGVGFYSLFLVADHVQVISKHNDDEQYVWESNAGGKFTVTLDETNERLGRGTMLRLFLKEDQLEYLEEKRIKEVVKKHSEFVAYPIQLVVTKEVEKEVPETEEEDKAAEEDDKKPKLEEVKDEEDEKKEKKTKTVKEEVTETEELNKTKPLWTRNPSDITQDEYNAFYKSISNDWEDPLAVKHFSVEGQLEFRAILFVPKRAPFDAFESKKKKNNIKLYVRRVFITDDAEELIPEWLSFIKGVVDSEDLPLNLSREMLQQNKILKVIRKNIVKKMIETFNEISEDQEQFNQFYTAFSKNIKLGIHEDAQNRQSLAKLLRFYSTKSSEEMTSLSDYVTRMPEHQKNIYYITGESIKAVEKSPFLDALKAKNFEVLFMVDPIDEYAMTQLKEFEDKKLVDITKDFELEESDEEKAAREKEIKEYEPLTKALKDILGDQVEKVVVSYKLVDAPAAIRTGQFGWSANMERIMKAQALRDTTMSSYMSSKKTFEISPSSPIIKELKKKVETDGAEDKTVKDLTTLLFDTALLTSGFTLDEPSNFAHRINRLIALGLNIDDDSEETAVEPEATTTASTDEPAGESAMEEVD
The target of assay [27] is T3, Heat shock 70 kDa protein 1A (Homo sapiens, UniProt P0DMV8). Kind of assay: Hsp70 inhibitors, biochemical, TR-FRET (AID 786).
T3 sequence (P0DMV8 whole entry): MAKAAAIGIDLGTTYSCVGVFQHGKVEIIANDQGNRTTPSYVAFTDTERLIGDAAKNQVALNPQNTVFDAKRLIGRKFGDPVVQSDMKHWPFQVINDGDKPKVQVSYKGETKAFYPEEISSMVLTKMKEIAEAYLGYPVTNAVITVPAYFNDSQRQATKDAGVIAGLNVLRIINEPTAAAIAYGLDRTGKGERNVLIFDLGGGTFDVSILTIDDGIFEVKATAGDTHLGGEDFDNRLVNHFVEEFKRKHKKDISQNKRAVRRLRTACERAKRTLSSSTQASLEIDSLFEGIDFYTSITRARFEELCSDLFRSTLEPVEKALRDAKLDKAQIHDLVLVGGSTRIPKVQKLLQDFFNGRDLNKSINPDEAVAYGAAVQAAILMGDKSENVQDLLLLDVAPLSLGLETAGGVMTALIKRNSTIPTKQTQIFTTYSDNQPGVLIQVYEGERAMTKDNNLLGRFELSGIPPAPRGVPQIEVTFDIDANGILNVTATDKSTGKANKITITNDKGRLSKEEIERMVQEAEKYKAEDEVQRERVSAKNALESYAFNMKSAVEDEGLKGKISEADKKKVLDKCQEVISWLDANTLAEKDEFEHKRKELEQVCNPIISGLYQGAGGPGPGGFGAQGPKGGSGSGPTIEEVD
The target in a further assay is T4, Bcl-2-like protein 10 (Homo sapiens, UniProt Q9HD36).
T4 sequence (Q9HD36 whole entry): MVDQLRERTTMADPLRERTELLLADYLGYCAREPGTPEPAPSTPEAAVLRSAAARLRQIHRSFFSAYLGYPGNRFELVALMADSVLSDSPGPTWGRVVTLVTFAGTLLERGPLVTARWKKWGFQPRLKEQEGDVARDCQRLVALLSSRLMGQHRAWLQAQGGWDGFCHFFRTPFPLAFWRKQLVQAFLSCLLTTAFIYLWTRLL
Kind of assay: displacers of TR3 peptide from Bcl-B, primary screen, selectivity assay for Bfl-1 inhibitor project, biochemical, fluorescence polarization, FITC-TR3 peptide (AID 748).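 Further: fluorescence polarization from a fluorescein-labelled TR3 peptide binding purified Bcl-B.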

Assay [28] deals with T3, Heat shock 70 kDa protein 1A. The assay can be described thus: Hsp70 inhibitors, probe displacement, primary screen, biochemical, fluorescence polarization (AID 583).
For assay [29], the target named is T5, Dual specificity protein phosphatase 6 (Rattus norvegicus, UniProt Q64346).
T5 sequence (Q64346 whole entry): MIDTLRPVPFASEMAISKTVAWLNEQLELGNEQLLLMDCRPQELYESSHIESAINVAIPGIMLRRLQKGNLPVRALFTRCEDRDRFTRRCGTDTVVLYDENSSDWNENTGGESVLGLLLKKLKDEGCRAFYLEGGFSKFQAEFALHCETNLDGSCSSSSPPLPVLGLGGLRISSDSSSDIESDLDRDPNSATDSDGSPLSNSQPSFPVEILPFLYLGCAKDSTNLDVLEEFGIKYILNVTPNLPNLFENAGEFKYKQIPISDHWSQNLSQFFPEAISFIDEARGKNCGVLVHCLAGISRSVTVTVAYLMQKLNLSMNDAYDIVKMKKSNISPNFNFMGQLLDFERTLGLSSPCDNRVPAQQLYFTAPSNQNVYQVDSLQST
The assay can be described thus: MKP-3 phosphatase inhibitors, primary screen, biochemical, rat enzyme, in vitro (AID 425).

Assay [30] addresses C-C chemokine receptor type 6 (Homo sapiens, UniProt P51684). The assay can be described thus: CCR6 receptor antagonists, dose response, cell-based, luminescent beta-arrestin readout (AID 504728). It counts as functional.
The target in the next assay is Beta-galactosidase (Escherichia coli, UniProt Q8VNN2). Kind of assay: beta-galactosidase enzyme inhibitors and activators, dose response, artefact control for CCR6 antagonist project, biochemical, E. coli enzyme, set 3 (AID 504712). The format is functional.

T1 sequence (P08684 whole entry): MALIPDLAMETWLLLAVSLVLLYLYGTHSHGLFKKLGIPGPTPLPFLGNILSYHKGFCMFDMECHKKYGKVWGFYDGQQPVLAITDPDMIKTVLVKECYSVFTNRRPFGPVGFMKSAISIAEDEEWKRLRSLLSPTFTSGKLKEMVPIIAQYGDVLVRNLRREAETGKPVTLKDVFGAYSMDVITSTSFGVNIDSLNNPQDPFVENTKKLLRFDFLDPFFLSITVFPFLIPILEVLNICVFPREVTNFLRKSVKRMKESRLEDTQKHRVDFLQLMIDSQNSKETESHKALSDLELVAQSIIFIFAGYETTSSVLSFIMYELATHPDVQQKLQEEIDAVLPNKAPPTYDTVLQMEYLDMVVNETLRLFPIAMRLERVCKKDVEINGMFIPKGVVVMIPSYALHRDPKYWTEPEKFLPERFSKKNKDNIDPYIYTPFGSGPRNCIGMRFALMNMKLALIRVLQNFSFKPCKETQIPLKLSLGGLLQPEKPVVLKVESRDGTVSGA
Mothers against decapentaplegic homolog 3, sequence (P84022 whole entry): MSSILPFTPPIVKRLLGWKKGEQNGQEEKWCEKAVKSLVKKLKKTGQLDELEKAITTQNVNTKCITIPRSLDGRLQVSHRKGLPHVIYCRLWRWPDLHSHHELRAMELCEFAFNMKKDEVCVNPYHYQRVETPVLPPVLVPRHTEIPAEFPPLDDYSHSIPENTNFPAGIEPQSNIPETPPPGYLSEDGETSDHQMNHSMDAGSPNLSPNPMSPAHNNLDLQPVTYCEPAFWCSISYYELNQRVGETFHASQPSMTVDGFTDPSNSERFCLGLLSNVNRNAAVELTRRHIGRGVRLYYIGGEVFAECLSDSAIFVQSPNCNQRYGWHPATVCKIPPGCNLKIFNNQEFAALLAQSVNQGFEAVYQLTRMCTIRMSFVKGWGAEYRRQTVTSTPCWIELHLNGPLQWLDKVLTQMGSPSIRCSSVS
Photoreceptor-specific nuclear receptor, sequence (Q9Y5X4 whole entry): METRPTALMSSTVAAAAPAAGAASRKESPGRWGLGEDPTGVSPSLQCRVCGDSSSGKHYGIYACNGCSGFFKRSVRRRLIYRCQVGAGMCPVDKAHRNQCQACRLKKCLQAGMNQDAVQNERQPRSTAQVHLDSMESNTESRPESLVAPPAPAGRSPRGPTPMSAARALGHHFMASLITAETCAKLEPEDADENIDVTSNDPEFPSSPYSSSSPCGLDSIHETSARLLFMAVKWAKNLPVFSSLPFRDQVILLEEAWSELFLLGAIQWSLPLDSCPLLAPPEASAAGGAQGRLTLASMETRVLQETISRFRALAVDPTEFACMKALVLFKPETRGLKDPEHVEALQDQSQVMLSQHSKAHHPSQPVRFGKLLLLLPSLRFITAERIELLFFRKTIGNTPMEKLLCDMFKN
C-C chemokine receptor type 6, sequence (P51684 whole entry): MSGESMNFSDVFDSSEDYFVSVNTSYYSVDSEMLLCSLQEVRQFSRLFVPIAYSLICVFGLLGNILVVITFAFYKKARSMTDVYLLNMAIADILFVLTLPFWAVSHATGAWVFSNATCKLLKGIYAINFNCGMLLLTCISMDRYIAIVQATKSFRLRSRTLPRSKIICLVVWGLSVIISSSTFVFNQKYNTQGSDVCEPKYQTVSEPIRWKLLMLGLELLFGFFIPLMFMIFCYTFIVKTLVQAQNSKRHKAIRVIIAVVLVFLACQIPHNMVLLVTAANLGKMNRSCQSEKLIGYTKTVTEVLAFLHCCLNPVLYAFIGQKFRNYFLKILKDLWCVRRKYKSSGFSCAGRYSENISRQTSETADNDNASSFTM
Melanin-concentrating hormone receptor 1, sequence (Q99705 whole entry): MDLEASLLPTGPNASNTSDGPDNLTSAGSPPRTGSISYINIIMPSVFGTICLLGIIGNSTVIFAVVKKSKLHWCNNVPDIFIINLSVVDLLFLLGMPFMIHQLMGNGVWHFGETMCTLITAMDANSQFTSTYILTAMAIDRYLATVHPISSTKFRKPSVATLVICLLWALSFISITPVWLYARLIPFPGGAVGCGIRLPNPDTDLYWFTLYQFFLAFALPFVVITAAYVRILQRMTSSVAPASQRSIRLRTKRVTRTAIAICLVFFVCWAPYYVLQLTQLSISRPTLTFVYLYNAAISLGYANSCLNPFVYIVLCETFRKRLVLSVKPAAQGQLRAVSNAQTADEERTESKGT

As to `COC(=O)C1=C(C)N(Cc2ccccc2)C2=C(C(C)=O)C[C@@](O)(C(=O)OC)C(=O)N2C1c1ccccc1` (stereo not given in full), the AC50 at Cytochrome P450 3A4 [1] and at Cytochrome P450 3A4 [2] was 3.16 µM (inconclusive) throughout.
For `CCOC(=O)c1sc(N2C(=O)C(O)=C(C(=O)c3ccco3)C2c2cccc([N+](=O)[O-])c2)nc1C` (stereo not given), the EC50 in the assay with HEK293 [3] was > 20 µM (inactive). For the same molecule, the IC50 is > 20 µM (inactive) with HEK293 [4]; 11.8 µM (not active) in [5]; > 20 µM (inactive) in the assay on HEK293 [6]; > 20 µM (inactive) in the assay with HEK293 [7]; > 67 µM (not active) in assay [8].
Regarding `COc1ccc(-n2c(=S)[nH]c3c(oc4ccccc43)c2=O)cc1`, the IC50 is 2.32 µM (active) in assay [9] and 4.93 µM (active) in [10].
As for `COc1ccc(C(c2cc3c(cc2O)OCO3)N2CCCCC2)cc1` (stereo not given), the IC50 in assay [11] was < 2.5 µM (not active).
For the molecule `O=C(Nc1nc(-c2ccc(Cl)cc2)cs1)c1ccccc1F`, in the assay on Vero, the CC50 was > 40 µM (active).
On to `O=C(NCCc1ccc(Cl)cc1)c1cc(-c2ccco2)nc2ccccc12`, for which the IC50 in assay [12] was 31.1 µM (active).
Regarding `COc1ccc(Oc2c(Cl)cnn(-c3cccc4ccccc34)c2=O)cc1`, the IC50 in assay [13] is 8.4 µM (active).
Take `Oc1c(Br)cc(Br)cc1/C=N/Nc1ccc(Cl)nn1`: the EC50 in assay [14] is 45.2 µM (active); in assay [15], 0.931 µM (active); with HEK293 [3], > 20 µM (inactive); in [16], 0.249 µM (active); in “cells” it was 0.502 µM (active); in [17], 0.287 µM (active). In addition, the EC50 in assay [18] was < 0.1 µM (active); in [19] it was < 0.03 µM (active); in assay [20] it was > 20 µM (inactive); in [21], 0.495 µM (active); in [23] it was > 180 µM (inactive); in assay [24] it was > 30 µM (not active). In addition, the results for the EC50 (in the assay on Streptococcus; in assay [25]; in assay [26]) were 0.899 µM (active), > 12 µM (inconclusive) and 24.3 µM (active), respectively. Also, the IC50 in the assay on HEK293 [4], in the assay with HEK293 [6], in the assay on HEK293 [7] and in the assay with HEK293 [22] was > 20 µM (inactive) throughout. Further, the AC50 in the assay with INS1 was 0.22 µM (active).
Consider `Cc1ccc(C)n1-c1cccc(C(=O)O)c1`, for which the IC50 in assay [27] was 18.5 µM (active); on Bcl-2-like protein 10, 1.13 µM (active); in [28] it was 48.3 µM (active); in [29] it was > 10 µM (not active).
Turning to `C(=C\c1sc(Nc2ccccc2)n[n+]1-c1ccccc1)/c1ccccc1`, the IC50 in assay [30] was 48.8 µM (inactive); on Beta-galactosidase, > 66.6 µM (inactive).
